{"source": "patent US10736856B2", "about": "“Use of xibornol as active agent in the treatment of viral infections” (priority 2016, dated 2020)", "assay_in_all_cases": "Xibornol virucidal efficacy test (UNI EN 14476 adapted), residual viral titer by Karber micromethod", "settings_in_all_cases": "for Average viral titre after 15 minutes contact / Logarithmic reduction: 15 minutes contact", "key": {"[1]": {"system": "Human Rhinovirus", "type": "cell-based, Human Rhinovirus A (ATCC VR-286), titrated on HeLa", "description": "(§1) The experimentation was conducted by using the following strains from ATCC: • VR-5 Human Adenovirus 5; Strain: Adenoid 75, • VR-286 Picornaviridae, Rhinovirus, Human Rhinovirus A, • VR-740 Human Coronavirus.\n(§2) The cell lines used for the isolation of the target viruses were: • ATCC CCL-2 HeLa—Cervical Adenocarcinoma—Human (Homo sapiens), briefly ‘HeLa’, for the study of Human Adenovirus 5 and Human Rhinovirus, and • ATCC CCL-171 MRC-5-Lung Fibroblast-Human (Homo Sapiens), briefly ‘MRC-5’ for the study of Human Coronavirus.\n(§3) The tests to assess the toxicity of xibornol were performed as per UNI EN 14476 protocol, which refers to the “virucidal activity of chemical disinfectants or antiseptics for tools, surfaces or hands forming a physically stable homogeneous mixture when diluted with hard water or water”, suitably adapted, also considering that xibornol is soluble in alcohol (ethanol) that is already well known to have toxic effects for cell cultures.\n(§4) Therefore, it was decided to use preparations in which xibornol was diluted with different solvents, in order also to be able to test both the solution and the suspension condition. After several tests, a reliable method was set up, by using Labrasol®, namely caprylocaproyl polyoxyl-8 glyceride, as solvent and formulating xibornol in solution.\n(§5) For each of the 3 viruses, 3 replicates were performed with 10 mL mixtures consisting of: • 1 mL Labrasol® (“clean” tests) or 1 mL of fetal bovine serum (“dirt” tests); • 8 mL xibornol for each dilution (8%, 3%, 0.5%) at the non-toxic concentration for the cell cultures: 10^−3, 10^−2 and 10^−1 respectively, and corresponding to 0.008 g/100 mL, 0.030 g/100 mL and […]. Dilutions made in Labrasol®; • 1 mL of virus with known titer.\n(§6) The tests carried out in “dirt” situations, specified by the standard protocol, were intended to create a more “difficult” environment for the performance of the virucidal activity by xibornol, hindered in its activity by the presence of further polluting components, as actually happens in the application environment of the active ingredient, allowing recreating and simulating as closely as possible the conditions of use.\n(§7) For tests performed in “dirt” condition, the erythrocytes were not mixed with the bovine fetal serum, as indicated by the European standard, because of the interfering effect they have towards the cell lines used in the tests, which would have led to difficulties in interpreting the results.\n(§8) Moreover, for each replicate, a negative control was used, consisting of: • 1 mL virus; • 9 mL Labrasol® (“clean” tests) or 8 mL Labrasol®+1 mL fetal bovine serum (“dirt” tests).\n(§9) Contact time: 15 minutes.\n(§10) After this interval, the mixtures were analysed to assess the residual viral titer by titration, Karber micromethod.\n(§11) The data obtained were analysed with the Excel program for the evaluation of averages and total logarithmic standard deviations."}, "[2]": {"system": "Human Adenovirus 5", "type": "cell-based", "description": "as §1, §2, §3, §4, §5, §6, §7, §8, §9, §10, §11"}, "[3]": {"system": "Human Coronavirus", "type": "cell-based, Human Coronavirus (ATCC VR-740), titrated on MRC-5", "description": "as §1, §2, §3, §4, §5, §6, §7, §8, §9, §10, §11"}, "[4]": {"settings": "after 15 minutes of contact, all concentrations tested (0.008, 0.030, 0.05 g/100 mL)"}, "[5]": {"settings": "extrapolated from trend curve to xibornol 3 g per 100 mL of solution"}, "[6]": {"settings": "“clean” test, working concentration 0.008 g/100 mL (8% solution, dilution 10^−3)"}, "[7]": {"settings": "“clean” test, working concentration 0.03 g/100 mL (3% solution, dilution 10^−2)"}, "[8]": {"settings": "“clean” test, working concentration 0.05 g/100 mL (0.5% solution, dilution 10^−1)"}, "[9]": {"settings": "“dirt” test (fetal bovine serum), working concentration 0.008 g/100 mL (8% solution, dilution 10^−3)"}, "[10]": {"settings": "“dirt” test (fetal bovine serum), working concentration 0.03 g/100 mL (3% solution, dilution 10^−2)"}, "[11]": {"settings": "“dirt” test (fetal bovine serum), working concentration 0.05 g/100 mL (0.5% solution, dilution 10^−1)"}}, "note": "“Also recorded” adds a separate entry of the source."}
{"smiles": "Cc1cc(O)c(C2CC3CCC2(C)C3(C)C)cc1C", "note": "(centres unmarked) [xibornol, 4,5-dimethyl-2-[1,7,7-trimethylbicyclo[2.2.1]heptan-2-yl]phenol]", "values": [{"measurement": "killing extent (reduction of viral load)", "setting": "[1]; [4]", "value": "greater than 2 orders of magnitude"}, {"measurement": "final average titer after treatment, extrapolated", "setting": "[1]; [5]", "value": "very close to zero"}, {"measurement": "reduction of the viral load titer (expressed as logarithm), extrapolated", "setting": "[1]; [5]", "value": "at least of two orders of magnitude; also recorded: almost total reduction"}, {"measurement": "Average viral titre after 15 minutes contact", "setting": "[1]; [6]", "value": "2 ± 0.1", "unit": "Log DCP50/mL"}, {"measurement": "Logarithmic reduction", "setting": "[1]; [6]", "value": 2.2}, {"measurement": "Average viral titre after 15 minutes contact", "setting": "[1]; [7]", "value": "1.3 ± 0.5", "unit": "Log DCP50/mL"}, {"measurement": "Logarithmic reduction", "setting": "[1]; [7]", "value": 2.9}, {"measurement": "Average viral titre after 15 minutes contact", "setting": "[1]; [8]", "value": "1.2 ± 0.4", "unit": "Log DCP50/mL"}, {"measurement": "Logarithmic reduction", "setting": "[1]; [8]", "value": 3}, {"measurement": "Average viral titre after 15 minutes contact", "setting": "[1]; [9]", "value": "1 ± 0.1", "unit": "Log DCP50/mL"}, {"measurement": "Logarithmic reduction", "setting": "[1]; [9]", "value": 2.8}, {"measurement": "Average viral titre after 15 minutes contact", "setting": "[1]; [10]", "value": "0.7 ± 0.1", "unit": "Log DCP50/mL"}, {"measurement": "Logarithmic reduction", "setting": "[1]; [10]", "value": 3.1}, {"measurement": "Average viral titre after 15 minutes contact", "setting": "[1]; [11]", "value": "0.8 ± 0.1", "unit": "Log DCP50/mL"}, {"measurement": "Logarithmic reduction", "setting": "[1]; [11]", "value": 3}, {"measurement": "reduction of the viral titer, average", "setting": "[1]; “dirt” tests", "value": "more than two orders of magnitude"}, {"measurement": "reduction of the viral titer, highest reached", "setting": "[1]; “dirt” tests", "value": "≥ 3 orders of magnitude"}, {"measurement": "killing extent (reduction of viral load)", "setting": "[2]; [4]", "value": "greater than 2 orders of magnitude"}, {"measurement": "final average titer after treatment, extrapolated", "setting": "[2]; [5]", "value": "very close to zero"}, {"measurement": "reduction of the viral load titer (expressed as logarithm), extrapolated", "setting": "[2]; [5]", "value": "at least of two orders of magnitude; also recorded: almost total reduction"}, {"measurement": "Average viral titre after 15 minutes contact", "setting": "[2]; [6]", "value": "2 ± 0.8", "unit": "Log DCP50/mL"}, {"measurement": "Logarithmic reduction", "setting": "[2]; [6]", "value": 2.4}, {"measurement": "Average viral titre after 15 minutes contact", "setting": "[2]; [7]", "value": "1.3 ± 1", "unit": "Log DCP50/mL"}, {"measurement": "Logarithmic reduction", "setting": "[2]; [7]", "value": 3.1}, {"measurement": "Average viral titre after 15 minutes contact", "setting": "[2]; [8]", "value": "1.1 ± 0.1", "unit": "Log DCP50/mL"}, {"measurement": "Logarithmic reduction", "setting": "[2]; [8]", "value": 3.3}, {"measurement": "Average viral titre after 15 minutes contact", "setting": "[2]; [9]", "value": "1.1 ± 0.6", "unit": "Log DCP50/mL"}, {"measurement": "Logarithmic reduction", "setting": "[2]; [9]", "value": 2}, {"measurement": "Average viral titre after 15 minutes contact", "setting": "[2]; [10]", "value": "1.2 ± 0.6", "unit": "Log DCP50/mL"}, {"measurement": "Logarithmic reduction", "setting": "[2]; [10]", "value": 1.9}, {"measurement": "Average viral titre after 15 minutes contact", "setting": "[2]; [11]", "value": "0.8 ± 0.5", "unit": "Log DCP50/mL"}, {"measurement": "Logarithmic reduction", "setting": "[2]; [11]", "value": 2.3}, {"measurement": "reduction of the viral titer, average", "setting": "[2]; “dirt” tests", "value": "more than two orders of magnitude"}, {"measurement": "killing extent (reduction of viral load)", "setting": "[3]; [4]", "value": "greater than 2 orders of magnitude"}, {"measurement": "killing peak (reduction of viral load)", "setting": "[3]; after 15 minutes of contact, highest value reached", "value": "3.8 orders of magnitude"}, {"measurement": "final average titer after treatment, extrapolated", "setting": "[3]; [5]", "value": "very close to zero"}, {"measurement": "reduction of the viral load titer (expressed as logarithm), extrapolated", "setting": "[3]; [5]", "value": "at least of two orders of magnitude; also recorded: almost total reduction"}, {"measurement": "Average viral titre after 15 minutes contact", "setting": "[3]; [6]", "value": "1.8 ± 0.7", "unit": "Log DCP50/mL"}, {"measurement": "Logarithmic reduction", "setting": "[3]; [6]", "value": 3.4}, {"measurement": "Average viral titre after 15 minutes contact", "setting": "[3]; [7]", "value": "1.4 ± 0", "unit": "Log DCP50/mL"}, {"measurement": "Logarithmic reduction", "setting": "[3]; [7]", "value": 3.8}, {"measurement": "Average viral titre after 15 minutes contact", "setting": "[3]; [8]", "value": "1.6 ± 0.3", "unit": "Log DCP50/mL"}, {"measurement": "Logarithmic reduction", "setting": "[3]; [8]", "value": 3.6}, {"measurement": "Average viral titre after 15 minutes contact", "setting": "[3]; [9]", "value": "1.7 ± 0.7", "unit": "Log DCP50/mL"}, {"measurement": "Logarithmic reduction", "setting": "[3]; [9]", "value": 2.3}, {"measurement": "Average viral titre after 15 minutes contact", "setting": "[3]; [10]", "value": "1.5 ± 0.6", "unit": "Log DCP50/mL"}, {"measurement": "Logarithmic reduction", "setting": "[3]; [10]", "value": 2.6}, {"measurement": "Average viral titre after 15 minutes contact", "setting": "[3]; [11]", "value": "1.6 ± 0.4", "unit": "Log DCP50/mL"}, {"measurement": "Logarithmic reduction", "setting": "[3]; [11]", "value": 2.5}, {"measurement": "reduction of the viral titer, average", "setting": "[3]; “dirt” tests", "value": "more than two orders of magnitude"}]}
